From patent US11382882B2 (priority 2010, dated 2022)
“Also recorded” adds a separate entry of the source.

Key:
MRSA strain USA300 = experiment: microbe, parasite or virus in culture; conditions: Staphylococcus aureus, 6 h; for hemolysis at 1 µg/mL: read-out: ELISA α-hemolysin inhibition 1 μg/mL; for hemolysis at 10 µg/mL: read-out: ELISA α-hemolysin inhibition 10 μg/mL
[1] = system: α-hemolysin gene expression; type: cell-based, Staphylococcus aureus
[2] = system: phenol-soluble modulin-a (psma) gene expression; experiment: phenol-soluble modulin-a (psma) gene expression in MRSA strain USA300 (FIG. 4); type: cell-based, Staphylococcus aureus
AgrA gene expression = AgrA gene expression in MRSA strain USA300 (FIG. 5); type: cell-based, Staphylococcus aureus
AgrC gene expression = AgrC gene expression in MRSA strain USA300 (FIG. 6); type: cell-based, Staphylococcus aureus
RNAIII gene expression = RNAIII gene expression in MRSA strain USA300 (FIG. 7); type: cell-based, Staphylococcus aureus
hla transcription = hla transcription by qRT-PCR (FIG. 9A); conditions: 6 h, versus DMSO; for transcription of hla (qRT-PCR, in words): 10 and 50 μg/ml, 37° C.
Description: (§1) The effect of the compounds VII, X, XII, and XV on the transcription of hla and RNAIII was measured by qRT-PCR. S. aureus USA300 was incubated at 37° C. for 6 h in the presence of 0, 10, or 50 μg/ml of the compounds. The cultures were harvested, and total RNA was isolated using the RiboPure—bacterial RNA isolation kit (Ambion) with additional DNase I treatment. RNA yield and purity were assessed by measuring the ratio of UV absorbance at 260 and 280 nm, and the integrity of the RNA was assessed on a 1% denaturing agarose gel. High integrity RNA had two clear bands without smearing, indicating no fragmentation of 23S and 16S rRNA.
(§2) Real-time RT-PCR reactions were conducted using a SYBR—green mix (Bio-Rad). The data were analyzed using the ΔΔC2 and are represented as log2 of the treated sample/control sample (DMSO only).

RNAIII transcription = RNAIII transcription by qRT-PCR (FIG. 9B); conditions: 10 or 50 μg/ml; 37° C., 6 h; versus DMSO
Description: as §1, §2

Description for Streptococcus pyogenes: During the first phase of in vitro testing the concentration of the compounds was kept constant at 100 mg/L in 2% DMSO.

`O=C(O)c1c(F)c(F)cc2ccccc12` [III] was tested, and the hemolysis at 1 µg/mL (MRSA strain USA300) was 20.8 ± 3.5% and the hemolysis at 10 µg/mL (MRSA strain USA300) was 28.3 ± 3.4%.

In the case of `O=C(c1ccccc1)c1ccc(O)cc1O` [XIV], the hemolysis at 10 µg/mL (MRSA strain USA300) is reported as 26.7%.

In the case of `O=C(O)c1ccc(-c2ccc(O)c(F)c2)cc1` [VII], the α-hemolysin gene expression [1] is reported as “inhibit”, the “phenol-soluble modulin-a (psma) gene expression” value [2] is reported as “inhibit” and the AgrA gene expression (AgrA gene expression) is reported as “inhibit”. The AgrC gene expression (AgrC gene expression) was “inhibit”, the RNAIII gene expression (RNAIII gene expression) was “inhibit” and the “rabbit blood hemolysis inhibition in Streptococcus pyogenes (in words)” value (from here on “rabbit blood hemolysis inhibition”) (Streptococcus pyogenes) was “active”. The hemolysis at 1 µg/mL (MRSA strain USA300) was 31.3 ± 9%, the hemolysis at 10 µg/mL (MRSA strain USA300) was 61 ± 14.8% and the “transcription of hla (qRT-PCR, in words)” value (hla transcription) was “reduced”.

`O=C(O)c1cccc(-c2ccccc2)c1O` [XV] was tested, and the α-hemolysin gene expression [1] was “inhibit”, the “phenol-soluble modulin-a (psma) gene expression” value [2] was “inhibit” and the AgrA gene expression (AgrA gene expression) was “inhibit”. For the same molecule, the AgrC gene expression (AgrC gene expression) was “inhibit”, the RNAIII gene expression (RNAIII gene expression) was “inhibit” and the “rabbit blood hemolysis inhibition” value (Streptococcus pyogenes) was “active”. The hemolysis at 1 µg/mL (MRSA strain USA300) was 49.4 ± 4.6% and the hemolysis at 10 µg/mL (MRSA strain USA300) was 53 ± 5.9%.

`O=C(O)c1ccc2cc(F)ccc2c1` [VIII] showed a hemolysis at 10 µg/mL (MRSA strain USA300) of 56.3 ± 1.7%.

With `O=C(O)c1c(O)c(O)cc2ccccc12` [II] the α-hemolysin gene expression [1] was “inhibit”, the “phenol-soluble modulin-a (psma) gene expression” value [2] was “inhibit” and the AgrA gene expression (AgrA gene expression) was “inhibit”. For the same molecule, the AgrC gene expression (AgrC gene expression) was “inhibit”, the RNAIII gene expression (RNAIII gene expression) was “inhibit” and the “rabbit blood hemolysis inhibition” value (Streptococcus pyogenes) was “active”. It also gave a hemolysis at 1 µg/mL (MRSA strain USA300) of 21.3 ± 5.2% and a hemolysis at 10 µg/mL (MRSA strain USA300) of 76 ± 1.2%.

With `O=C(O)c1cc(-c2ccc(F)cc2F)ccc1O` [X, diflunisal, reference compound] the α-hemolysin gene expression [1] was “inhibit”, the “phenol-soluble modulin-a (psma) gene expression” value [2] was “inhibit” and the AgrA gene expression (AgrA gene expression) was “inhibit”. The AgrC gene expression (AgrC gene expression) was “inhibit”, the RNAIII gene expression (RNAIII gene expression) was “inhibit” and the “rabbit blood hemolysis inhibition” value (Streptococcus pyogenes) was “active”. For the same molecule, the hemolysis at 1 µg/mL (MRSA strain USA300) was 33 ± 3.6%, the hemolysis at 10 µg/mL (MRSA strain USA300) was 62.3 ± 1.8% and the “reduction of hla expression” value (hla transcription; 50 μg/mL) was roughly 3000 fold. The “transcription of hla (qRT-PCR, in words)” value (hla transcription) was “reduced” and the “RNAIII expression (qRT-PCR, in words)” value (RNAIII transcription) was “significant reduction; also recorded: reduced”.

`O=C(/C=C/c1ccc2c(c1)OCO2)c1ccccc(=O)c1O` [IV] was tested, and the hemolysis at 1 µg/mL (MRSA strain USA300) was 40.2 ± 5.2% and the hemolysis at 10 µg/mL (MRSA strain USA300) was 73.6 ± 2.2%.

Molecule `O=C1Nc2cccc3cc(O)cc1c23` [I] has a hemolysis at 1 µg/mL (MRSA strain USA300) of 28 ± 4.4% and a hemolysis at 10 µg/mL (MRSA strain USA300) of 65 ± 2.5%.

For `COc1cc(C(=O)N/N=C/c2cccc3ccccc23)ccc1O` [V], the α-hemolysin gene expression [1] was “inhibit”, the “phenol-soluble modulin-a (psma) gene expression” value [2] was “inhibit” and the AgrA gene expression (AgrA gene expression) was “inhibit”. For the same molecule, the AgrC gene expression (AgrC gene expression) was “inhibit”, the RNAIII gene expression (RNAIII gene expression) was “inhibit” and the “rabbit blood hemolysis inhibition” value (Streptococcus pyogenes) was “active”. For the same molecule, the hemolysis at 1 µg/mL (MRSA strain USA300) was 23 ± 1.3% and the hemolysis at 10 µg/mL (MRSA strain USA300) was 88.4 ± 1.5%.

In the case of `O=C(O)c1ccc(-c2ccc(F)cc2)cc1` [XVI], the α-hemolysin gene expression [1] is reported as “inhibit”, the “phenol-soluble modulin-a (psma) gene expression” value [2] is reported as “inhibit” and the AgrA gene expression (AgrA gene expression) is reported as “inhibit”. The AgrC gene expression (AgrC gene expression) was “inhibit”, the RNAIII gene expression (RNAIII gene expression) was “inhibit” and the “rabbit blood hemolysis inhibition” value (Streptococcus pyogenes) was “active”. The hemolysis at 1 µg/mL (MRSA strain USA300) was 0%, the hemolysis at 10 µg/mL (MRSA strain USA300) was 68.8 ± 11.3% and the “transcription of hla (qRT-PCR, in words)” value (hla transcription) was “reduced”.

In the case of `COc1cc(O)c(C(=O)c2ccccc2)cc1S(=O)(=O)O` [IX], the “rabbit blood hemolysis inhibition” value (Streptococcus pyogenes) is reported as “active” and the hemolysis at 10 µg/mL (MRSA strain USA300) is reported as 41.9 ± 8.2%.

For `O=C(O)c1ccc(Oc2ccc(F)cc2)cc1` [XII], the hemolysis at 10 µg/mL (MRSA strain USA300) was 29.1 ± 11% and the “transcription of hla (qRT-PCR, in words)” value (hla transcription) was “reduced”.

Molecule `O=C(O)c1cc(-c2cccc(F)c2)ccc1O` [XIII] has a hemolysis at 10 µg/mL (MRSA strain USA300) of 35.6 ± 12.5%.

`O=C(O)c1ccc(Oc2ccc(Cl)cc2)cc1` [XI] showed a hemolysis at 10 µg/mL (MRSA strain USA300) of 36.3 ± 8.2%.

In the case of `CCc1cc(C(=O)COc2ccccc2)c(O)cc1O` [VI], the α-hemolysin gene expression [1] is reported as “inhibit”, the AgrA gene expression (AgrA gene expression) is reported as “inhibit” and the “rabbit blood hemolysis inhibition” value (Streptococcus pyogenes) is reported as “active”. The hemolysis at 1 µg/mL (MRSA strain USA300) was 55.2 ± 5.8% and the hemolysis at 10 µg/mL (MRSA strain USA300) was 76.3 ± 11.2%.
